Source: the supplement of paper PMC4862054

Experiments:
Conditions in all cases: incubation time: 72 h
BT-474 [1] = test: normalised response (% of control), CellTox Green; higher = less cell death (100 = DMSO, 0 = benzethonium chloride kill control)
How it was run: (§1)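 Plates were normalised with 0.1 % DMSO as 100 and a positive kill control as 0. Breast cancer cell lines in 20 µl suspension had been seeded into 384-well plates with compound at 5 concentrations in 10-fold steps over a compound-specific 10,000-fold range, incubated 72 h, and read for CellTox Green fluorescence (485/520 nm) followed by CellTiter-Glo luminescence. Each value is the normalised signal at a single concentration.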

BT-549 [2] = test: as above
How it was run: as §1

CAL-120 [3] = test: as above
How it was run: as §1

CAL-148 [4] = test: as above
How it was run: as §1

CAL-51 [5] = test: as above
How it was run: as §1

CAL-85-1 [6] = test: as above
How it was run: as §1

DU-4475 [7] = test: as above
How it was run: as §1

HCC1143 [8] = test: as above
How it was run: as §1

HCC1599 [9] = test: as above
How it was run: as §1

HCC1937 [10] = test: as above
How it was run: as §1

Hs578T [11] = test: as above
How it was run: as §1

MCF-10A [12] = test: as above
How it was run: as §1

MDA-MB-231 [13] = test: as above
How it was run: as §1

MDA-MB-436 [14] = test: as above
How it was run: as §1

MDA-MB-453 [15] = test: as above
How it was run: as §1

MFM-223 [16] = test: as above
How it was run: as §1

BT-474 [17] = test: normalised response (% of control), CellTiter-Glo; higher = more viable cells (100 = DMSO, 0 = benzethonium chloride kill control)
Method: (§2)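 DSRT, 72 h incubation, CellTox Green / CellTiter-Glo readout. Signal is normalised to DMSO and benzethonium chloride controls. Value is the normalised response at the highest dose.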

BT-549 [18] = test: as above
Method: as §2

CAL-120 [19] = test: as above
Method: as §2

CAL-148 [20] = test: as above
Method: as §2

CAL-51 [21] = test: as above
Method: as §2

CAL-85-1 [22] = test: as above
Method: as §2

DU-4475 [23] = test: as above
Method: as §2

HCC1143 [24] = test: as above
Method: as §2

HCC1599 [25] = test: as above
Method: as §2

HCC1937 [26] = test: as above
Method: as §2

HDQ-P1 [27] = test: as above
Method: as §2

Hs578T [28] = test: as above
Method: as §2

MCF-10A [29] = test: as above
Method: as §2

MDA-MB-231 [30] = test: as above
Method: as §2

MDA-MB-436 [31] = test: as above
Method: as §2

MDA-MB-453 [32] = test: as above
Method: as §2

MDA-MB-468 [33] = test: as above
Method: as §2

MFM-223 [34] = test: as above
Method: as §2

SK-BR-3 = test: as above
Method: as §2

HDQ-P1 [35] = test: normalised response (% of control), CellTox Green; higher = less cell death (100 = DMSO, 0 = benzethonium chloride kill control)
How it was run: as §1

MDA-MB-468 [36] = test: as above
How it was run: as §1

Compound | normalised response (BT-474 [1]) [%] | normalised response (BT-549 [2]) [%] | normalised response (CAL-120 [3]) [%] | normalised response (CAL-148 [4]) [%] | normalised response (CAL-51 [5]) [%] | normalised response (CAL-85-1 [6]) [%] | normalised response (DU-4475 [7]) [%] | normalised response (HCC1143 [8]) [%] | normalised response (HCC1599 [9]) [%] | normalised response (HCC1937 [10]) [%] | normalised response (Hs578T [11]) [%] | normalised response (MCF-10A [12]) [%] | normalised response (MDA-MB-231 [13]) [%] | normalised response (MDA-MB-436 [14]) [%] | normalised response (MDA-MB-453 [15]) [%] | normalised response (MFM-223 [16]) [%] | normalised response (BT-474 [17]) [%] | normalised response (BT-549 [18]) [%] | normalised response (CAL-120 [19]) [%] | normalised response (CAL-148 [20]) [%] | normalised response (CAL-51 [21]) [%] | normalised response (CAL-85-1 [22]) [%] | normalised response (DU-4475 [23]) [%] | normalised response (HCC1143 [24]) [%] | normalised response (HCC1599 [25]) [%] | normalised response (HCC1937 [26]) [%] | normalised response (HDQ-P1 [27]) [%] | normalised response (Hs578T [28]) [%] | normalised response (MCF-10A [29]) [%] | normalised response (MDA-MB-231 [30]) [%] | normalised response (MDA-MB-436 [31]) [%] | normalised response (MDA-MB-453 [32]) [%] | normalised response (MDA-MB-468 [33]) [%] | normalised response (MFM-223 [34]) [%] | normalised response (SK-BR-3) [%] | normalised response (HDQ-P1 [35]) [%] | normalised response (MDA-MB-468 [36]) [%]
C[C@]12CC[C@@H]3c4ccc(OC(=O)N(CCCl)CCCl)cc4CC[C@H]3[C@@H]1CC[C@@H]2O [Estramustine] (10000 nM) | 99 | 58 | 98.3 | 101 | 74 | 130 | 96.4 | 110 | 95 | 81.2 | 79.7 | 106 | 102 | 99.6 | 96.2 | 96.7 | 95 | 106 | 103 | 78.5 | 93.3 | 94.2 | 85.5 | 97.5 | 95.5 | 91.7 | 105 | 92.7 | 88 | 96.6 | 91.7 | 92.4 | 87.7 | 85.9 | 87.4 | – | –
CC(=O)c1c(C)c2cnc(Nc3ccc(N4CCNCC4)cn3)nc2n(C2CCCC2)c1=O [Palbociclib] (10000 nM) | 96 | 106 | 102 | – | 94.1 | 103 | 97 | 101 | 99.4 | 89 | 135 | 74.4 | 121 | 68.1 | 61.4 | 90.1 | 69.7 | 79.3 | 77.7 | 80.4 | 55 | 70.4 | 86.9 | 76.5 | 86.5 | 93.2 | 86.3 | 86.9 | 65.8 | 84.3 | 74.4 | 92.7 | 68.2 | 65.9 | 52.9 | 50.1 | 193
C[C@]1(O)C[C@@H](c2nc(-c3ccc4ccc(-c5ccccc5)nc4c3)c3c(N)nccn32)C1 [Linsitinib] (10000 nM) | 95.6 | 111 | 97.5 | 98.4 | 95.4 | 89.2 | 97.4 | 119 | 101 | 105 | 68.2 | 101 | 65 | – | 99.2 | 89.9 | 68.8 | 76 | 73.6 | 88.2 | 126 | 69.6 | 85.5 | 68.5 | 50.9 | 88.7 | 53.5 | 91.9 | 26.1 | 77.2 | 85.5 | 80 | 59.2 | 83.1 | 49.9 | 107 | 96.4
CC(=O)N(O)CCCCCNC(=O)CCC(=O)N(O)CCCCCNC(=O)CCC(=O)N(O)CCCCCN [Deferoxamine] (10000 nM) | 82.7 | 81.3 | 103 | 37.6 | 48 | 128 | 81.2 | 79.9 | 92.8 | 90.9 | 113 | 105 | 98.7 | 98.2 | 102 | 101 | 76 | 54.5 | 87.2 | 26.6 | 37.9 | 78.8 | 18.3 | 65 | 45.9 | 64.1 | 64.6 | 62 | 57.5 | 71.8 | 48.8 | 89.6 | 37.7 | 70.9 | 40.5 | 104 | 150
Cc1ccc([N+](=O)[O-])cc1S(=O)(=O)N(C)/N=C/c1cnc2ccc(Br)cn12 [PIK-75] (10000 nM) | 7.46 | -7.34 | 81.7 | 65.1 | -5.71 | 50.7 | 74.7 | 54.4 | 72.6 | 24.7 | -10.9 | -39.7 | -38.5 | 76 | 51.3 | 18.6 | 8.5 | 1.57 | 26.6 | 37.5 | 5.22 | 7.97 | 1.22 | 12.6 | 8.43 | 6.99 | 17.4 | 0.96 | -0.11 | 1.78 | 15 | 0.48 | 2.17 | 3.73 | 0.21 | 66.3 | 31.6
COc1cc(F)c(F)c(Nc2ccc(I)cc2F)c1NS(=O)(=O)C1(C[C@H](O)CO)CC1 [Refametinib] (10000 nM) | 99.6 | 101 | 92 | 75.8 | 101 | -0.94 | 69.6 | 106 | 107 | 88.4 | 97.8 | 65.8 | 64.1 | 95.6 | 102 | 97.9 | 47.8 | 65.7 | 55.7 | 65.8 | 92.5 | 23.8 | 0.11 | 67.3 | 102 | 58.5 | 43.6 | 55.1 | 25 | 43.7 | 54.8 | 82.7 | 45.2 | 41 | 77.2 | 82.1 | -53.7
CC1(C)CCC(CN2CCN(c3ccc(C(=O)NS(=O)(=O)c4ccc(NCC5CCOCC5)c([N+](=O)[O-])c4)c(Oc4cnc5[nH]ccc5c4)c3)CC2)=C(c2ccc(Cl)cc2)C1 [ABT-199] (10000 nM) | 101 | 84.9 | 88.4 | 98.2 | 101 | 114 | 97.9 | 103 | 105 | -11.4 | 102 | 108 | -19 | 95.9 | 97.7 | 86.4 | 70.2 | 91.4 | 98.5 | 105 | 119 | 97.8 | 86.2 | 93.7 | 66.4 | 73.2 | 90.8 | 90.5 | 116 | 66.3 | 102 | 92.9 | 85.9 | 91 | 90 | 98.2 | 118
